Measurements: patent publication US20180207138A1, “METHODS FOR THE TREATMENT OF TREMORS BY POSITIVE MODULATION OF SK CHANNELS” (Cadent Therapeutics, Inc., priority 2017, published 2018)
Where two headings read alike, the source gives them in different places.

Legend:
Harmaline-induced tremor [1] = details: for inhibition of tremors (tremor events): FIG. 1; for Minimally Efficacious Dose: oral dosing 30 min before 10 mg/Kg ip Harmaline, tremor events over 60 min
Description: The structure of each of these compounds is duplicated below.
Animals were administered with either Vehicle or compound (orally) 30 minutes prior to Harmaline administration (t=−30 minutes). Animals were then dosed ip with 10 mg/Kg Harmaline HCl in isotonic saline (t=0 minutes). Immediately following Harmaline administration, animals were monitored for 1 hour (t=0-60 minutes) to quantify the number of tremor events.
Tremor events were quantified via automated capture of forelimb tremor activity and confirmed by visual observation. Prior to testing, animals were fitted with a small metal band (0.5 g) on the right forepaw and acclimated to the testing apparatus for one hour. Immediately following Harmaline administration, animals were placed in the testing apparatus and tremor events were quantified for 60 minutes. A tremor event signal was generated when the transmitter band on the animal moved within the electromagnetic field generated by a loop antenna within the testing apparatus. Outputs from the amplifier were digitized at a sampling rate of 1,000 Hz and the signal was processed and analyzed using LabView software (National Instruments). […] Data were analyzed in one-minute bins over the course of the test and presented as the sum of tremor events over the entire 60 minute test.

harmaline-induced tremor [2] = details: for tremor, power spectrum in 10-14 Hz band: 5 mg/kg ip harmaline, 30 minutes; for percent Motion Power (% MP): FIG. 3
Description: Whole body tremor was measured by a San Diego Instruments Tremor Monitor (San Diego, Calif., USA). […] Tremor was measured for 30 minutes following harmaline administration, and data were analyzed by fast Fourier transform and reported as a frequency power spectrum. […] Data were further analyzed by calculating the percent Motion Power (% MP), defined as the power in the 9-13 Hz band divided by the total power across the spectrum (0-30 Hz) multiplied by 100.

[3] = male, Sprague Dawley, rat, in vivo; for Measured Brain Concentration: po
Description: (§1) It is calculated as follows: CFB=CMB×BFF, where CMB is the concentration of compound measured by mass spectrometry from brains harvested immediately following tremor recording (Table 1, “Measured Brain Concentration”). CFB is the amount of free compound not complexed with protein and therefore free to interact with the SK2 channel (Table 1, “Calculated Free Brain Concentration”). BFF is average free fraction of compound as measured by equilibrium dialysis (Table 1, “Brain Free Fraction”). This was performed by using 1 μM of compound with 10% brain tissue homogenate in phosphate buffer saline. Incubation time was 5 hours at 37° C. and detection was by LC-MS/MS. Reference compound was carbazepine. Free drug in brain available to interact with SK2 channels (CFB) is arrived at by multiplying the measured total brain level (CMB) by the average free fraction (BFF).

in vitro = details: brain homogenate
Description: as §1

Row | Calculated Free Brain Concentration [3] | Measured Brain Concentration [3] | fraction unbound at 5 h, 1 μM (in vitro) | SMILES | inhibition of tremors (tremor events) (Harmaline-induced tremor [1]; 30 mg/Kg orally) | Minimally Efficacious Dose (Harmaline-induced tremor [1]) | tremor, power spectrum in 10-14 Hz band (harmaline-induced tremor [2]; 3 mg/kg orally) | percent Motion Power (% MP) (harmaline-induced tremor [2]; 3 mg/kg orally, n=8, P<0.01 vs harmaline+vehicle) | tremor, power spectrum in 10-14 Hz band (harmaline-induced tremor [2]; 10 mg/kg orally) | percent Motion Power (% MP) (harmaline-induced tremor [2]; 10 mg/kg orally, n=16, P<0.05 vs harmaline+vehicle) | tremor, power spectrum in 10-14 Hz band (harmaline-induced tremor [2]; 30 mg/kg orally) | percent Motion Power (% MP) (harmaline-induced tremor [2]; 30 mg/kg orally, n=13, P<0.05 vs harmaline+vehicle) | inhibition of tremors (tremor events) (Harmaline-induced tremor [1]; 60 mg/Kg orally)
1 | 0.08 µM | 1.3 µM | – | Cc1ccn(-c2nc(NC3CCC(F)(F)CC3)cc(N3CCOCC3)n2)n1 [Compound 2] | significant inhibition of tremors | 30 mg/kg | significantly reduced tremor | significantly reduced harmaline-induced tremor | significantly reduced tremor | significantly reduced harmaline-induced tremor | significantly reduced tremor | significantly reduced harmaline-induced tremor | –
2 | 0.15 µM | 3.1 µM | 0.048 | Cc1cc(C)n(-c2nc(NC3CCC(F)(F)CC3)cc(N3CCOCC3)n2)n1 [Compound 1] | – | 60 mg/kg | – | – | – | – | – | – | significant inhibition of tremors
